Test results: PubChem BioAssay (NCI)
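Tested at 5 concentrations; 48 h exposure; 96-well plates; endpoints linearly interpolated, else capped at highest concentration. GI50 marks 50% less growth. At the TGI there is no net growth.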

Tests used:
Assay in all cases: growth of human tumour cells (NCI), 48 h
SK-MEL-2 melanoma = test system: SK-MEL-2 melanoma
OVCAR-8 ovarian = test system: OVCAR-8 ovarian
HL-60(TB) leukemia = test system: HL-60(TB) leukemia
OVCAR-3 ovarian = test system: OVCAR-3 ovarian
SNB-19 CNS = test system: SNB-19 CNS
SK-OV-3 ovarian = test system: SK-OV-3 ovarian
SF-539 CNS = test system: SF-539 CNS
NCI/ADR-RES ovarian = test system: NCI/ADR-RES ovarian
UACC-62 melanoma = test system: UACC-62 melanoma
MCF7 breast = test system: MCF7 breast
EKVX NSCLC = test system: EKVX NSCLC
ACHN renal = test system: ACHN renal
A498 renal = test system: A498 renal
SF-295 CNS = test system: SF-295 CNS
SF-268 CNS = test system: SF-268 CNS
MDA-MB-435 = test system: MDA-MB-435
MOLT-4 leukemia = test system: MOLT-4 leukemia
A549 NSCLC = test system: A549 NSCLC
SR leukemia = test system: SR leukemia
786-0 renal = test system: 786-0 renal
HT29 colon = test system: HT29 colon
HCT-15 colon = test system: HCT-15 colon
IGROV1 ovarian = test system: IGROV1 ovarian
UO-31 renal = test system: UO-31 renal
SN12C renal = test system: SN12C renal
COLO 205 colon = test system: COLO 205 colon
OVCAR-5 ovarian = test system: OVCAR-5 ovarian
CCRF-CEM leukemia = test system: CCRF-CEM leukemia
NCI-H522 lung = test system: NCI-H522 lung
CAKI-1 renal = test system: CAKI-1 renal
K-562 leukemia = test system: K-562 leukemia
HCC-2998 colon = test system: HCC-2998 colon
NCI-H460 lung = test system: NCI-H460 lung
NCI-H226 lung = test system: NCI-H226 lung
KM12 colon = test system: KM12 colon
HOP-92 NSCLC = test system: HOP-92 NSCLC
RPMI-8226 leukemia = test system: RPMI-8226 leukemia
UACC-257 melanoma = test system: UACC-257 melanoma
DU-145 prostate = test system: DU-145 prostate
MALME-3M melanoma = test system: MALME-3M melanoma
HCT-116 colon = test system: HCT-116 colon
SK-MEL-28 melanoma = test system: SK-MEL-28 melanoma
TK-10 renal = test system: TK-10 renal
SNB-75 CNS = test system: SNB-75 CNS
LOX IMVI melanoma = test system: LOX IMVI melanoma
T-47D breast = test system: T-47D breast
U251 CNS = test system: U251 CNS
M14 melanoma = test system: M14 melanoma
RXF 393 renal = test system: RXF 393 renal
OVCAR-4 ovarian = test system: OVCAR-4 ovarian
MDA-MB-231 breast = test system: MDA-MB-231 breast
HOP-62 NSCLC = test system: HOP-62 NSCLC
SK-MEL-5 melanoma = test system: SK-MEL-5 melanoma
BT-549 breast = test system: BT-549 breast
HS 578T breast = test system: HS 578T breast
SW-620 colon = test system: SW-620 colon
PC-3 prostate = test system: PC-3 prostate

Structure (SMILES): Cc1cccc2sc(/N=C(\N)C(Br)Br)nc12
- GI50 (SK-MEL-2 melanoma): 2450 nM
- TGI (SK-MEL-2 melanoma): 7500 nM
- GI50 (OVCAR-8 ovarian): 2110 nM
- TGI (OVCAR-8 ovarian): 7270 nM
- GI50 (HL-60(TB) leukemia): 1830 nM
- TGI (HL-60(TB) leukemia): 7130 nM
- GI50 (OVCAR-3 ovarian): 1680 nM
- TGI (OVCAR-3 ovarian): 4380 nM
- GI50 (SNB-19 CNS): 3230 nM
- TGI (SNB-19 CNS): 15100 nM
- GI50 (SK-OV-3 ovarian): 4000 nM
- TGI (SK-OV-3 ovarian): 16000 nM
- GI50 (SF-539 CNS): 1420 nM
- TGI (SF-539 CNS): 3340 nM
- GI50 (NCI/ADR-RES ovarian): 1670 nM
- TGI (NCI/ADR-RES ovarian): 7100 nM
- GI50 (UACC-62 melanoma): 2540 nM
- TGI (UACC-62 melanoma): 12000 nM
- GI50 (MCF7 breast): 819 nM
- TGI (MCF7 breast): 3800 nM
- GI50 (EKVX NSCLC): 3610 nM
- TGI (EKVX NSCLC): 14200 nM
- GI50 (ACHN renal): 1070 nM
- TGI (ACHN renal): 3860 nM
- GI50 (A498 renal): 12500 nM
- TGI (A498 renal): 25100 nM
- GI50 (SF-295 CNS): 3650 nM
- TGI (SF-295 CNS): 15500 nM
- GI50 (SF-268 CNS): 2240 nM
- TGI (SF-268 CNS): 13100 nM
- GI50 (MDA-MB-435): 1330 nM
- TGI (MDA-MB-435): 2920 nM
- GI50 (MOLT-4 leukemia): 1720 nM
- TGI (MOLT-4 leukemia): 11500 nM
- GI50 (A549 NSCLC): 2730 nM
- TGI (A549 NSCLC): 10400 nM
- GI50 (SR leukemia): 2010 nM
- TGI (SR leukemia): 7450 nM
- GI50 (786-0 renal): 1810 nM
- TGI (786-0 renal): 4140 nM
- GI50 (HT29 colon): 1180 nM
- TGI (HT29 colon): 3530 nM
- GI50 (HCT-15 colon): 1250 nM
- TGI (HCT-15 colon): 6810 nM
- GI50 (IGROV1 ovarian): 1620 nM
- TGI (IGROV1 ovarian): 3750 nM
- GI50 (UO-31 renal): 1230 nM
- TGI (UO-31 renal): 7530 nM
- GI50 (SN12C renal): 1680 nM
- TGI (SN12C renal): 3920 nM
- GI50 (COLO 205 colon): 1250 nM
- TGI (COLO 205 colon): 2930 nM
- GI50 (OVCAR-5 ovarian): 2520 nM
- TGI (OVCAR-5 ovarian): 7500 nM
- GI50 (CCRF-CEM leukemia): 2670 nM
- TGI (CCRF-CEM leukemia): 8120 nM
- GI50 (NCI-H522 lung): 1540 nM
- TGI (NCI-H522 lung): 3080 nM
- GI50 (CAKI-1 renal): 820 nM
- TGI (CAKI-1 renal): 2100 nM
- GI50 (K-562 leukemia): 1070 nM
- TGI (K-562 leukemia): 12800 nM
- GI50 (HCC-2998 colon): 1590 nM
- TGI (HCC-2998 colon): 3450 nM
- GI50 (NCI-H460 lung): 654 nM
- TGI (NCI-H460 lung): 2590 nM
- GI50 (NCI-H226 lung): 1820 nM
- TGI (NCI-H226 lung): 4130 nM
- GI50 (KM12 colon): 1990 nM
- TGI (KM12 colon): 11800 nM
- GI50 (HOP-92 NSCLC): 1540 nM
- TGI (HOP-92 NSCLC): 6390 nM
- GI50 (RPMI-8226 leukemia): 2120 nM
- TGI (RPMI-8226 leukemia): 9510 nM
- GI50 (UACC-257 melanoma): 2900 nM
- TGI (UACC-257 melanoma): 11500 nM
- GI50 (DU-145 prostate): 1940 nM
- TGI (DU-145 prostate): 11100 nM
- GI50 (MALME-3M melanoma): 1640 nM
- TGI (MALME-3M melanoma): 3660 nM
- GI50 (HCT-116 colon): 520 nM
- TGI (HCT-116 colon): 1990 nM
- GI50 (SK-MEL-28 melanoma): 1910 nM
- TGI (SK-MEL-28 melanoma): 5260 nM
- GI50 (TK-10 renal): 4300 nM
- TGI (TK-10 renal): 15500 nM
- GI50 (SNB-75 CNS): 2010 nM
- TGI (SNB-75 CNS): 10600 nM
- GI50 (LOX IMVI melanoma): 158 nM
- TGI (LOX IMVI melanoma): 345 nM
- GI50 (T-47D breast): 2540 nM
- TGI (T-47D breast): 12800 nM
- GI50 (U251 CNS): 1310 nM
- TGI (U251 CNS): 3300 nM
- GI50 (M14 melanoma): 1390 nM
- TGI (M14 melanoma): 3710 nM
- GI50 (RXF 393 renal): 1320 nM
- TGI (RXF 393 renal): 3320 nM
- GI50 (OVCAR-4 ovarian): 2000 nM
- TGI (OVCAR-4 ovarian): 6500 nM
- GI50 (MDA-MB-231 breast): 2110 nM
- TGI (MDA-MB-231 breast): 7820 nM
- GI50 (HOP-62 NSCLC): 2700 nM
- TGI (HOP-62 NSCLC): 12100 nM
- GI50 (SK-MEL-5 melanoma): 3030 nM
- TGI (SK-MEL-5 melanoma): 9420 nM
- GI50 (BT-549 breast): 1660 nM
- TGI (BT-549 breast): 3550 nM
- GI50 (HS 578T breast): 2320 nM
- TGI (HS 578T breast): 9790 nM
- GI50 (SW-620 colon): 659 nM
- TGI (SW-620 colon): 2410 nM
- GI50 (PC-3 prostate): 1930 nM
- TGI (PC-3 prostate): 6800 nM
